In US20110028554A1, “PHARMACEUTICAL COMPOSITIONS COMPRISING DIIODOTHYRONINE AND THEIR THERAPEUTIC USE” (UNIVERSITE JOSEPH FOURIER, priority 2007, published 2011):

Columns and labels:
[1] = Body weight and food intake of Zucker rats; assay type: in vivo; conditions: Zucker (Fa/Fa) rats, 30 days, FIG. 8 legend high dosage 25 μg/100 g BW
Protocol: (§1) Adult male rat bred in the animal room facilities of Laboratory of Fundamental and Applied. Bioenergetics (Wistar strain) or purchased from Charles-River Laboratories, Domaine des oncins, L'ARBRESLE France [(genetically obese normoglycemic (Zucker or Fa/Fa) or diabetic (ZDF)] were caged individually in stainless steel hanging cages and maintained in a 22° C., 50±10% relative humidity and 12 h:12 h light:dark environment. All animals were fed ad libitum with a standard rat chow (Safe A04, Villemoisson, France) and tap water. Body mass and food intake were recorded twice/thrice a week and fresh food was provided, at the same time to ensure minimal disturbance to the animals' food, behavior.
Eight-week old rats (300 g±10 g) were anesthetized by simultaneous intraperitoneal injection of diazepam 4 mg/kg and ketamine 100 mg/kg. In order to maintain body temperature during the surgery (10 min), animals were placed on a warm blanket. After interscapular shaving, a small incision of 0.5 cm of the skin allows the subcutaneous implantation of a small pellet (containing rT3 or 3′,3-T2) with a 10-gauge precision trochar. The pellets, manufactured by Innovative Research of America (Sarasota, Fla., USA) are constituted of a biodegradable matrix that effectively and continuously release the active product in the animal. […]

[2] = Body weight, adipose and lean tissue weight and core temperature in ZDF rats; assay type: in vivo, Zucker Diabetic fatty (ZDF) rats; conditions: high dose 25 μg/100 g BW
Protocol: as §1
Eight-week old rats (300 g±10 g) were anesthetized by simultaneous intraperitoneal injection of diazepam 4 mg/kg and ketamine 100 mg/kg. In order to maintain body temperature during the surgery (10 min), animals were placed on a warm blanket. After interscapular shaving, a small incision of 0.5 cm of the skin allows the subcutaneous implantation of a small pellet (containing rT3 or 3′,3-T2) with a 10-gauge precision trochar. The pellets, manufactured by Innovative Research of America (Sarasota, Fla., USA) are constituted of a biodegradable matrix that effectively and continuously release the active product in the animal.
3-5 diiodothyronine (3-5 T2) or 3-3′diiodothyronine (3-3′ T2) were used at different doses (5, 0.5, or 0.1 mg/pellet) were implanted in order to provide a continuous and constant drug delivery over 60 days (which represents 25 μg, 2.5 μg or 0.5 μg/day/100 g BW).

[3] = Indirect calorimetry (energy expenditure, respiratory quotient) in Wistar rats; assay type: in vivo; conditions: low dosage 2.5 μg/100 g BW
Excerpt: Energy expenditure as well as the nature of substrate oxidized (carbohydrates or lipids) were investigated by indirect calorimetry. This principle is based on the determinations of CO2, release (VCO2) and O2 consumption (VO2) by each animal. It assumes that O2 is entirely involved in substrate oxidation in the respiratory chain (leading to water production) while CO2 release is related to substrate decarboxylation (in the Kreb's cycle). These measurements allow assessing energy expenditure (EE) and respiratory quotient ([…], RQ). EE represent the absolute energy dissipation during rest and activity. RQ is a relative measurement indicating the ratio of carbohydrate versus lipid involved in oxidative pathway. A ratio of 1.0 indicates exclusive carbohydrate oxidation while a ratio of 0.7 indicates exclusive lipid oxidation. Each value between these two extreme values indicates the relative proportion of each substrate (of note protein oxidation was not evaluated). As an example, RQ approaches 0.7 during fasting, indicating lipid oxidation, conversely after feeding RQ increases close to 1 indicating carbohydrate oxidation resulting from food intake and blood insulin rise. Likewise, animals fed high-carbohydrate diets have higher RQs than those fed high-fat diets.
The indirect calorimetry system (Panlab, Barcelona, Spain) consists of cages, pumps, flow controllers, valves, and analyzers. […]

[4] = Body composition of genetically obese Zucker rats; assay type: in vivo, Zucker (Fa/Fa) rats; conditions: FIG. 9, high dosage 25 μg/100 g BW
Excerpt: At the end of the experimental period, animals were sacrificed by decapitation, in order to avoid the well-known effects of general anesthetics on mitochondrial metabolism. Blood, samples were immediately collected and plasma was frozen for subsequent determination of serum metabolites and hormones. Liver, muscles and fat depots were quickly excised and weighed. Liver median lobe was rapidly freeze-clamped. Muscles (plantaris, soleus and gastrocnemius) were frozen in isopentane precooled in liquid nitrogen. Mesenteric fat consisted, of adipose tissue surrounding the gastro-intestinal tract from the gastro-oesophageal sphincter to the end of the rectum with special care taken in distinguishing and removing the pancreas. Retroperitoneal fat pad was taken as the distinct depot behind each kidney along the lumbar muscles. Epididymal fat consisted, of adipose tissue on top of the epididymis. For subcutaneous depot measurement, a rectangular piece of skin was taken on the right side of each animal from the median line of the abdomen between the spine and the right hip to the first rib. Interscapular brown adipose tissue was removed and dissected free from adjacent muscles and white adipose tissue. The heart ventricles, the right kidney and the spleen were also excised, weighed and frozen.

[5] = normal rats, high-fat diet, daily peritoneal injection; cited from earlier work

N[C@@H](Cc1cc(I)c(Oc2ccc(O)cc2)c(I)c1)C(=O)O [3,5-T2, 3,5-diiodothyronine]
Food intake vs placebo [1]: significantly lower as compared to placebo | Animal growth (body weight) vs placebo ([1]; text says low 3,5-T2 group): no significant growth | Fat mass gain vs placebo ([2]; 4 weeks): less | Lean body mass increase vs placebo ([2]; 4 weeks): higher | Core temperature vs placebo ([2]; 15 days): higher as compared to placebo | Respiratory quotient (RQ) vs placebo [3]: lower than RQ with placebo treatment during the day and the first part of the night | Absolute values of fat deposit, all localizations, vs placebo [4]: significantly lower | Brown adipose tissue vs placebo [4]: significantly increased | Muscle mass vs placebo [4]: not affected | Fat deposit vs untreated rats [5]: less fat deposit | Weight gain vs untreated rats [5]: gained less weight
